# Test system: Liver
# Experiment: Biodistribution in S180 tumor-bearing KM mouse liver assessed per gram of tissue weight at 240 to 370 kBq, iv after 15 mins
# Assay type: ADME, organism-based
# Settings: in vivo, 0.25 h
row,Drug uptake,SMILES
1,3.35 %ID,CC(C)[C@H](NC(=O)c1ccc([N+](=O)[O-])cc1[18F])C(=O)O

# Test system: Heart
# Experiment: Biodistribution in S180 tumor-bearing KM mouse heart assessed per gram of tissue weight at 240 to 370 kBq, iv after 120 mins
# Assay type: ADME, organism-based
# Settings: in vivo, 2 h
row,Drug uptake,SMILES
1,0.05 %ID,CC(C)[C@H](NC(=O)c1ccc([N+](=O)[O-])cc1[18F])C(=O)O

# Test system: Heart
# Experiment: Biodistribution in S180 tumor-bearing KM mouse heart assessed per gram of tissue weight at 240 to 370 kBq, iv after 60 mins
# Assay type: ADME, organism-based
# Settings: in vivo, 1 h
row,Drug uptake,SMILES
1,0.11 %ID,CC(C)[C@H](NC(=O)c1ccc([N+](=O)[O-])cc1[18F])C(=O)O

# Test system: Heart
# Experiment: Biodistribution in S180 tumor-bearing KM mouse heart assessed per gram of tissue weight at 240 to 370 kBq, iv after 15 mins
# Assay type: ADME, organism-based
# Settings: in vivo, 0.25 h
row,Drug uptake,SMILES
1,0.72 %ID,CC(C)[C@H](NC(=O)c1ccc([N+](=O)[O-])cc1[18F])C(=O)O

# Test system: Heart
# Experiment: Biodistribution in S180 tumor-bearing KM mouse heart assessed per gram of tissue weight at 240 to 370 kBq, iv after 5 mins
# Assay type: ADME, organism-based
# Settings: in vivo
row,Drug uptake,SMILES
1,1.07 %ID,CC(C)[C@H](NC(=O)c1ccc([N+](=O)[O-])cc1[18F])C(=O)O

# Test system: Blood
# Experiment: Biodistribution in S180 tumor-bearing KM mouse blood assessed per gram of tissue weight at 240 to 370 kBq, iv after 120 mins
# Assay type: ADME, organism-based
# Settings: in vivo, 2 h
row,Drug uptake,SMILES
1,0.06 %ID,CC(C)[C@H](NC(=O)c1ccc([N+](=O)[O-])cc1[18F])C(=O)O

# Test system: Blood
# Experiment: Biodistribution in S180 tumor-bearing KM mouse blood assessed per gram of tissue weight at 240 to 370 kBq, iv after 15 mins
# Assay type: ADME, organism-based
# Settings: in vivo, 0.25 h
row,Drug uptake,SMILES
1,1.27 %ID,CC(C)[C@H](NC(=O)c1ccc([N+](=O)[O-])cc1[18F])C(=O)O

# Test system: Blood
# Experiment: Biodistribution in S180 tumor-bearing KM mouse blood assessed per gram of tissue weight at 240 to 370 kBq, iv after 5 mins
# Assay type: ADME, organism-based
# Settings: in vivo
row,Drug uptake,SMILES
1,2.43 %ID,CC(C)[C@H](NC(=O)c1ccc([N+](=O)[O-])cc1[18F])C(=O)O

# Test system: Brain
# Experiment: Biodistribution in S180 tumor-bearing KM mouse brain assessed per gram of tissue at 240 to 370 kBq, iv after 120 mins
# Assay type: ADME, organism-based
# Settings: in vivo, 2 h
row,Drug uptake,SMILES
1,0.01 %ID,CC(C)[C@H](NC(=O)c1ccc([N+](=O)[O-])cc1[18F])C(=O)O

# Test system: not listed separately
# Experiment: Biodistribution in S180 tumor present in KM mouse assessed per gram of tissue at 240 to 370 kBq, iv after 5 mins
# Assay type: ADME, organism-based, Neoplasm
# Settings: in vivo
row,Drug uptake,SMILES
1,1.37 %ID,CC(C)[C@H](NC(=O)c1ccc([N+](=O)[O-])cc1[18F])C(=O)O

# Test system: not listed separately
# Experiment: Biodistribution in S180 tumor present in KM mouse assessed per gram of tissue at 240 to 370 kBq, iv after 15 mins
# Assay type: ADME, organism-based, Neoplasm
# Settings: in vivo, 0.25 h
row,Drug uptake,SMILES
1,0.91 %ID,CC(C)[C@H](NC(=O)c1ccc([N+](=O)[O-])cc1[18F])C(=O)O

# Test system: not listed separately
# Experiment: Biodistribution in S180 tumor present in KM mouse assessed per gram of tissue at 240 to 370 kBq, iv after 30 mins
# Assay type: ADME, organism-based, Neoplasm
# Settings: in vivo, 0.5 h
row,Drug uptake,SMILES
1,0.56 %ID,CC(C)[C@H](NC(=O)c1ccc([N+](=O)[O-])cc1[18F])C(=O)O

# Test system: not listed separately
# Experiment: Biodistribution in S180 tumor present in KM mouse assessed per gram of tissue at 240 to 370 kBq, iv after 60 mins
# Assay type: ADME, organism-based, Neoplasm
# Settings: in vivo, 1 h
row,Drug uptake,SMILES
1,0.27 %ID,CC(C)[C@H](NC(=O)c1ccc([N+](=O)[O-])cc1[18F])C(=O)O

# Test system: not listed separately
# Experiment: Biodistribution in S180 tumor present in KM mouse assessed per gram of tissue at 240 to 370 kBq, iv after 120 mins
# Assay type: ADME, organism-based, Neoplasm
# Settings: in vivo, 2 h
row,Drug uptake,SMILES
1,0.08 %ID,CC(C)[C@H](NC(=O)c1ccc([N+](=O)[O-])cc1[18F])C(=O)O

# Test system: not listed separately
# Experiment: Ratio of drug level in S180 tumor to blood in KM mouse at 240 to 370 kBq, iv after 60 mins
# Assay type: ADME, organism-based
# Settings: tumour, 1 h
row,tumor/blood ratio,SMILES
1,1.83,CC(C)[C@H](NC(=O)c1ccc([N+](=O)[O-])cc1[18F])C(=O)O

# Test system: not listed separately
# Experiment: Ratio of drug level in S180 tumor to brain KM mouse at 240 to 370 kBq, iv after 30 mins
# Assay type: ADME, organism-based
# Settings: in vivo, 0.5 h
row,tumor/brain ratio,SMILES
1,13.3,CC(C)[C@H](NC(=O)c1ccc([N+](=O)[O-])cc1[18F])C(=O)O

# Test system: not listed separately
# Experiment: Ratio of drug level in S180 tumor to brain KM mouse at 240 to 370 kBq, iv after 60 mins
# Assay type: ADME, organism-based
# Settings: in vivo, 1 h
row,tumor/brain ratio,SMILES
1,9.99,CC(C)[C@H](NC(=O)c1ccc([N+](=O)[O-])cc1[18F])C(=O)O

# Test system: not listed separately
# Experiment: Ratio of drug level in S180 tumor to brain KM mouse at 240 to 370 kBq, iv after 120 mins
# Assay type: ADME, organism-based
# Settings: in vivo, 2 h
row,tumor/brain ratio,SMILES
1,6.9,CC(C)[C@H](NC(=O)c1ccc([N+](=O)[O-])cc1[18F])C(=O)O

# Test system: not listed separately
# Experiment: Ratio of drug level in S180 tumor to muscleKM mouse at 240 to 370 kBq, iv after 5 mins
# Assay type: ADME, organism-based, KM
# Settings: in vivo
row,tumor/muscle ratio,SMILES
1,1.38,CC(C)[C@H](NC(=O)c1ccc([N+](=O)[O-])cc1[18F])C(=O)O

# Test system: not listed separately
# Experiment: Ratio of drug level in S180 tumor to muscleKM mouse at 240 to 370 kBq, iv after 15 mins
# Assay type: ADME, organism-based, KM
# Settings: in vivo, 0.25 h
row,tumor/muscle ratio,SMILES
1,1.95,CC(C)[C@H](NC(=O)c1ccc([N+](=O)[O-])cc1[18F])C(=O)O

# Test system: not listed separately
# Experiment: Ratio of drug level in S180 tumor to muscleKM mouse at 240 to 370 kBq, iv after 30 mins
# Assay type: ADME, organism-based, KM
# Settings: in vivo, 0.5 h
row,tumor/muscle ratio,SMILES
1,2.62,CC(C)[C@H](NC(=O)c1ccc([N+](=O)[O-])cc1[18F])C(=O)O

# Test system: not listed separately
# Experiment: Ratio of drug level in S180 tumor to muscleKM mouse at 240 to 370 kBq, iv after 60 mins
# Assay type: ADME, organism-based, KM
# Settings: in vivo, 1 h
row,tumor/muscle ratio,SMILES
1,1.74,CC(C)[C@H](NC(=O)c1ccc([N+](=O)[O-])cc1[18F])C(=O)O

# Source: ChEMBL document CHEMBL1154040, “Synthesis and evaluation of novel F-18 labeled fluoroarylvaline derivatives: potential PET imaging agents for tumor detection” (Bioorg Med Chem Lett, 2009)
